Measured values reported in patent publication US20040132969A1, “Antibodies, peptides, analogs and uses thereof” (priority 2000, published 2004).
“Also recorded” adds a separate entry of the source.

Legend:
[1] = system: Lewis Lung Carcinoma (LLC) cells; test: Pulmonary tumour metastasis model (Lewis lung carcinoma); format: in vivo, C57BL/6J mice; conditions: lung weight / metastatic episodes
Description: In the metastasis model, Lewis Lung Carcinoma (LLC) cells are injected into the tail of the mouse, lodge in the lungs, and grow and spread rapidly.
In more detail, groups of five C57BL/6J mice were injected with 5×10^4 LLC cells via the tail vein and were subsequently treated intraperitoneally with various concentrations of tested peptides or equal volume of diluent control. The treatment was initiated three days after tumor cell inoculation. Two weeks after the intravenous injection of tumor cells, the mice were sacrificed and necropsied. The lungs were removed, weighed and compared to untreated controls, and to normal lungs without tumors. Results were analyzed for statistical significance using the Student's t-test.

[2] = system: chick chorioallantoic membrane (CAM); test: CAM cell proliferation assay (DNA synthesis, methyl-[3H]thymidine), substance alone; format: in vivo
Description: Cell proliferation was measured using the chick chorioallantoic membrane (CAM) model as described previously (4, 29, 30).
Briefly, on day zero, fertile hens' eggs, are placed in an egg incubator 37.5° C. with pointed ends facing downwards. On day 3, using a 2 ml syringe with a 21G needle, 2 ml of albumen is removed and the eggs returned to the incubator. On day 4, each egg is punctured by a needle at the blunt end into the air space. A square of shell is then removed, causing the egg contents to drop into the space left by collapse of the air space at the end of the egg and the withdrawal of albumen. The volume of the space above the dropped CAM is approximately 7 ml. The square opening in the shell is covered with Sellotape (RTM). The eggs then have to be kept level in the incubator without tilting. On day 10, the surviving eggs are organised into groups of preferably no less than 10. Test and control samples are prepared and each egg receives 0.3 ml of sample injected through the Sellotape (RTM) onto the upper surface of the CAM.
The technique of removal of each CAM is simple but crucial to the rationale of achieving results expressed as total DPM per CAM. […]
The assay used is based on quantitative measurement of DNA synthesis in the CAM after exposure to control and test substances 18 h after application in liquid form to the whole “dropped” area of each CAM (4,29). […]

[3] = system: chick chorioallantoic membrane (CAM) vessels; test: Vessel counting assay using CAM model; format: in vivo
Description: The CAM were prepared as for the tritiated thymidine assay.
Dulbecco's phosphate buffered saline was used as a control. A range of concentrations of peptides WTM33, WTM34, and WTM35 (1.875, 3.75, 7.5, 15, 30, and 60 μg/ml) were added to the CAM. Inoculations of 0.2 ml of the peptide were carried out on days 10,11 and 12 of CAM development, and then fixed using formalin on day 15.
After fixing in formalin for 2 days the CAM were excised and spoke like sections cut from the centre of the CAM to the outer edge. These were embedded in wax and processed on to slides with H&E staining to visualise the vessels in the section. The numbers of vessels per field of vision, over 10 fields were counted using an Olympus microscope. [Eyepieces set at 58, using ×40 (0.65) lens, from the graticule diameter of field is 0.45 mm, and therefore 1 mm is equal to 2.22 fields of view.] The average number of vessels/field of view×2.22 gives number of vessels/mm of CAM.

LHADPDLGVLCPTGC [WTM34]
effect in metastasis model (in words) [1]: striking results | maximum inhibition in the CAM assay ([2]; peptide alone, highest dose tested (20 micromoles)): 60% | effect on cell proliferation relative to control ([2]; substance alone, across the range of concentrations tested): inherent inhibitory effect on cell stimulation; also recorded: inhibits cell proliferation and vessel formation in the CAM; also recorded: inhibitory effects | effect on vessel number ([3]; 30 microgrammes/ml): significant reduction in the number of vessels | effect on number of vessels per mm of CAM ([3]; across the range of concentrations tested (1.875-60 μg/ml)): inhibits cell proliferation and vessel formation in the CAM | effect on number of vessels per mm of CAM ([3]; across the range of concentrations tested (1.875-60 μg/ml), listed as WTM 34): more dramatic biphasic reaction | effect on number of vessels per mm of CAM ([3]; higher dose range / very high doses): significant reduction in vessel formation | effect on vessel number ([3]; low doses): stimulatory effect on vessel number
